From ChEMBL document CHEMBL5465560, “Selectivity Literature for EUbOPEN Chemogenomic Library” (2024)

Key:
[1] = target: Dual specificity protein kinase CLK3 (Homo sapiens, UniProt P49761); experiment: Selectivity interaction (Ambit KINOMEscan and KiNATiv profiling in Jurkat cells) EUB0000090b CLK3; assay type: cell-based; details: at 1 µM
[2] = target: Glycogen synthase kinase-3 beta (Homo sapiens, UniProt P49841); experiment: Selectivity interaction (Kinase panel (DSF assay)) EUB0001559a GSK3B
[3] = target: 5'-AMP-activated protein kinase catalytic subunit alpha-2 (Homo sapiens) (UniProt P54646); experiment: Selectivity interaction (KinomeScan (DiscoverX)) EUB0000655a PRKAA2; details: at 10 µM
[4] = target: T1, Receptor-interacting serine/threonine-protein kinase 1 (Homo sapiens) (UniProt Q13546); experiment: Selectivity interaction (KinomeScan (DiscoverX)) EUB0001079a RIPK1; details: at 1 µM
T1 sequence (whole entry): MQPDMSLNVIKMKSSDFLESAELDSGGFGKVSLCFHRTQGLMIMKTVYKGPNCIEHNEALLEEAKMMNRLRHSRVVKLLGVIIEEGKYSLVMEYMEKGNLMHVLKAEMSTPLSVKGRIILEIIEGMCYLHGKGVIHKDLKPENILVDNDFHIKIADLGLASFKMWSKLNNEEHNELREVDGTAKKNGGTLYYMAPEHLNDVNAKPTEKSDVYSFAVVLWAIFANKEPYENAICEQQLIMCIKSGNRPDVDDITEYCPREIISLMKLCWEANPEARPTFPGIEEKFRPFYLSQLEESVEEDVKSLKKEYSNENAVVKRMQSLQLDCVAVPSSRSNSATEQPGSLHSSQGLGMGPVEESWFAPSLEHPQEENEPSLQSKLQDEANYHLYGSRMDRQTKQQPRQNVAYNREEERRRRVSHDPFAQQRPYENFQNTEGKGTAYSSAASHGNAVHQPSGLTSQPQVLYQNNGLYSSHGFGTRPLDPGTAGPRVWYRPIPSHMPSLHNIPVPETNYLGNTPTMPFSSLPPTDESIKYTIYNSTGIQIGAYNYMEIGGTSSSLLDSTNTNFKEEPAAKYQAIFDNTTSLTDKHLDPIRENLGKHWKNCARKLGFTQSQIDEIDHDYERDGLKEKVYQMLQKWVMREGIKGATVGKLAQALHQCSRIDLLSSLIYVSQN

[5] = target: Tyrosine-protein kinase HCK (Homo sapiens) (UniProt P08631); experiment: Selectivity interaction (Upstate Kinase Profiler service (Millipore)) EUB0000056c HCK; details: at 1 µM
Activated CDC42 kinase 1 = Activated CDC42 kinase 1 (Homo sapiens, UniProt Q07912); experiment: Selectivity interaction (Kinase panel (KiNativ target engagement assay in Jurkat cells)) EUB0001635a TNK2; assay type: cell-based; details: Selectivity number of off-targets 0.0, Selectivity number of targets 233.0, Source Knowledge https://www.sciencedirect.com/science/article/pii/S2451945619300674?via%3Dihub, at 1 µM
[6] = target: T2, Serine/threonine-protein kinase tousled-like 1 (Homo sapiens) (UniProt Q9UKI8); details: at 10 µM
T2 sequence (whole entry): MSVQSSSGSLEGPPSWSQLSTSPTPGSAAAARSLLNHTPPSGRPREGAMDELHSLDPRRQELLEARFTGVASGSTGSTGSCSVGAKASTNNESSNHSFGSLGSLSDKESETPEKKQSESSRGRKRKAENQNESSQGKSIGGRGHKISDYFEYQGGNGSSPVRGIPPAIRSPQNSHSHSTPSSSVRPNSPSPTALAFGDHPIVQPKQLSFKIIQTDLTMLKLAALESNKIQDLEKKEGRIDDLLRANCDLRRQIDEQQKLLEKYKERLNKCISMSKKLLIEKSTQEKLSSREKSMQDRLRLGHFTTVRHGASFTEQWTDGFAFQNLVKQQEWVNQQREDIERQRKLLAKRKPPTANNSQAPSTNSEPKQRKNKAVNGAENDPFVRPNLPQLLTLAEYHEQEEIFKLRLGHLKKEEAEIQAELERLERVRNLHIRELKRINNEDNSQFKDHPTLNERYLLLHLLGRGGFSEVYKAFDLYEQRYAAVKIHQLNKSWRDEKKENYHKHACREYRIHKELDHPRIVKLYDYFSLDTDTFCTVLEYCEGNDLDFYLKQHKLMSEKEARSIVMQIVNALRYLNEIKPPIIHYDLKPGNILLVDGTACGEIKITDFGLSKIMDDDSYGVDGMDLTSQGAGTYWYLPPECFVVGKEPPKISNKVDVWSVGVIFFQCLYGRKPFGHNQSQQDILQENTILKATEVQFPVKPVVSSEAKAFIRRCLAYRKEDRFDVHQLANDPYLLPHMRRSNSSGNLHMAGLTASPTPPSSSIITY

[7] = target: Calcium/calmodulin-dependent protein kinase type 1D (Homo sapiens) (UniProt Q8IU85); experiment: Selectivity interaction (Kinase panel (Invitrogen)) EUB0000639a CAMK1D; details: at 200 nM
[8] = target: Non-receptor tyrosine-protein kinase TYK2 (Homo sapiens, UniProt P29597)
[9] = target: Serine/threonine-protein kinase PLK1 (Homo sapiens, UniProt P53350); experiment: Selectivity interaction (KinomeScan (DiscoverX)) EUB0001049a PLK1; details: at 1 µM
[10] = target: Phosphatidylinositol 4-phosphate 3-kinase C2 domain-containing subunit beta (Homo sapiens) (UniProt O00750); experiment: Selectivity interaction (KinomeScan (DiscoverX)) EUB0000092b PIK3C2B; details: at 10 µM
[11] = target: Mitogen-activated protein kinase kinase kinase 10 (Homo sapiens) (UniProt Q02779); experiment: Selectivity interaction (KinomeScan (DiscoverX)) EUB0000695a MAP3K10; details: at 100 nM

Sequence of 5'-AMP-activated protein kinase catalytic subunit alpha-2 (Homo sapiens) (P54646 whole entry, looked up): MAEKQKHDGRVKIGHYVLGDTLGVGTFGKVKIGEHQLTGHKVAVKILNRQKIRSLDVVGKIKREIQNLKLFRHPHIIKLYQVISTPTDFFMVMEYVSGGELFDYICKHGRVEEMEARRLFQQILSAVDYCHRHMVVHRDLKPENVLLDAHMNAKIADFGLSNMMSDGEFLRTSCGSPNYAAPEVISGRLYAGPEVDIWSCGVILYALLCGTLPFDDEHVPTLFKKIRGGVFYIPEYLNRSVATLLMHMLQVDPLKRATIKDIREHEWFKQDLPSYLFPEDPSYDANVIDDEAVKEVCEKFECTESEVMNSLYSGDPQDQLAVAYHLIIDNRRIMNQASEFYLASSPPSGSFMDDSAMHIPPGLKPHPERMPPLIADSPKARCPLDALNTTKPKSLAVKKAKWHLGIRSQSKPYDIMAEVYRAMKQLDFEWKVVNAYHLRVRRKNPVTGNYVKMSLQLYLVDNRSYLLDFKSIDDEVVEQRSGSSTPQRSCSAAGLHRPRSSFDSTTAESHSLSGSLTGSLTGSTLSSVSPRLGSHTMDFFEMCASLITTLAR
Sequence of Non-receptor tyrosine-protein kinase TYK2 (P29597 whole entry): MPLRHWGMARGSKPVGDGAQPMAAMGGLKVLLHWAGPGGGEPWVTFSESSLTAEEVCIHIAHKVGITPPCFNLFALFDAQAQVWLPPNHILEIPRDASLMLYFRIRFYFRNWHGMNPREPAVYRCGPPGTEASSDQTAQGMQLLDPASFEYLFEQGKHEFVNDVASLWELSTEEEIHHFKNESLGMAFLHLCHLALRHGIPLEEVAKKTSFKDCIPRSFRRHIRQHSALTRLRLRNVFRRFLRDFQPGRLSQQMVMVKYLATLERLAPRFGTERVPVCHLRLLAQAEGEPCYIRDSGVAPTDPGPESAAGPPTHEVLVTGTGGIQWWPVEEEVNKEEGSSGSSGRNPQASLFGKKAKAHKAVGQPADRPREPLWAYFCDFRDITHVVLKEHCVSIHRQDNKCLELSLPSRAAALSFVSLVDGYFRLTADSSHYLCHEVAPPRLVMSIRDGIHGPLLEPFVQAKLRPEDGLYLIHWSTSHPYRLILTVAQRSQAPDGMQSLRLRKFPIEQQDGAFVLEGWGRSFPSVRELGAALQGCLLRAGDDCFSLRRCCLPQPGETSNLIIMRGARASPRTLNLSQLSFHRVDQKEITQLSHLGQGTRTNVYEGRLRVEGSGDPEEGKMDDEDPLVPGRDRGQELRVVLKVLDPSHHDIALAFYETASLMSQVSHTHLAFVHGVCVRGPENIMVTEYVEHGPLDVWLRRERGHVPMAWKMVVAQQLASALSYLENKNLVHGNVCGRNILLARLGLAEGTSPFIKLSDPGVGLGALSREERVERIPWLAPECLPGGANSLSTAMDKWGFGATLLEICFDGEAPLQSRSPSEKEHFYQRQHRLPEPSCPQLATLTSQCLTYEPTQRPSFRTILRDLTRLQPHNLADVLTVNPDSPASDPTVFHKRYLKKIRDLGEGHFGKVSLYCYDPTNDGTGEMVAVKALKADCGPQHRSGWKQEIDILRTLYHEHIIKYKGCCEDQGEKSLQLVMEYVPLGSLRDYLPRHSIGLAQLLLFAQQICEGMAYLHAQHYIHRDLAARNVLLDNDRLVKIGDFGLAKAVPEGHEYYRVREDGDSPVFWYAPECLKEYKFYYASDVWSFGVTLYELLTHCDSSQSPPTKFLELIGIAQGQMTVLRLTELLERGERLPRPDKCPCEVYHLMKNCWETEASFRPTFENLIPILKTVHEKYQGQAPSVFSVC
Sequence of Tyrosine-protein kinase HCK (Homo sapiens) (P08631 2-526 limits assumed): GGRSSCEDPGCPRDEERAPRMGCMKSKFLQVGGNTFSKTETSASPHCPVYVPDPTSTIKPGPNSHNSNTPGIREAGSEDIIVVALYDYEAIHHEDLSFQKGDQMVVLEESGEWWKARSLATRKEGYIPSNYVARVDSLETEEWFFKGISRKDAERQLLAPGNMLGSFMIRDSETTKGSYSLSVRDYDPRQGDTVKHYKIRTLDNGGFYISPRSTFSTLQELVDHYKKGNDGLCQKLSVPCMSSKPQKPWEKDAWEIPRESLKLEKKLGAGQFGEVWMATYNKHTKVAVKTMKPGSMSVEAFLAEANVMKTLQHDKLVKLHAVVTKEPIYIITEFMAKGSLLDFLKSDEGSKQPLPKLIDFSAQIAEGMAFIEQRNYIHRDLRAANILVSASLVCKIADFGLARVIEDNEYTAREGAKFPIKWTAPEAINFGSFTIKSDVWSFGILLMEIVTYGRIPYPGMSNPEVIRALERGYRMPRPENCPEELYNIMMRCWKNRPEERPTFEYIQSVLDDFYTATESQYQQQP
Sequence of Activated CDC42 kinase 1 (Q07912 whole entry, looked up): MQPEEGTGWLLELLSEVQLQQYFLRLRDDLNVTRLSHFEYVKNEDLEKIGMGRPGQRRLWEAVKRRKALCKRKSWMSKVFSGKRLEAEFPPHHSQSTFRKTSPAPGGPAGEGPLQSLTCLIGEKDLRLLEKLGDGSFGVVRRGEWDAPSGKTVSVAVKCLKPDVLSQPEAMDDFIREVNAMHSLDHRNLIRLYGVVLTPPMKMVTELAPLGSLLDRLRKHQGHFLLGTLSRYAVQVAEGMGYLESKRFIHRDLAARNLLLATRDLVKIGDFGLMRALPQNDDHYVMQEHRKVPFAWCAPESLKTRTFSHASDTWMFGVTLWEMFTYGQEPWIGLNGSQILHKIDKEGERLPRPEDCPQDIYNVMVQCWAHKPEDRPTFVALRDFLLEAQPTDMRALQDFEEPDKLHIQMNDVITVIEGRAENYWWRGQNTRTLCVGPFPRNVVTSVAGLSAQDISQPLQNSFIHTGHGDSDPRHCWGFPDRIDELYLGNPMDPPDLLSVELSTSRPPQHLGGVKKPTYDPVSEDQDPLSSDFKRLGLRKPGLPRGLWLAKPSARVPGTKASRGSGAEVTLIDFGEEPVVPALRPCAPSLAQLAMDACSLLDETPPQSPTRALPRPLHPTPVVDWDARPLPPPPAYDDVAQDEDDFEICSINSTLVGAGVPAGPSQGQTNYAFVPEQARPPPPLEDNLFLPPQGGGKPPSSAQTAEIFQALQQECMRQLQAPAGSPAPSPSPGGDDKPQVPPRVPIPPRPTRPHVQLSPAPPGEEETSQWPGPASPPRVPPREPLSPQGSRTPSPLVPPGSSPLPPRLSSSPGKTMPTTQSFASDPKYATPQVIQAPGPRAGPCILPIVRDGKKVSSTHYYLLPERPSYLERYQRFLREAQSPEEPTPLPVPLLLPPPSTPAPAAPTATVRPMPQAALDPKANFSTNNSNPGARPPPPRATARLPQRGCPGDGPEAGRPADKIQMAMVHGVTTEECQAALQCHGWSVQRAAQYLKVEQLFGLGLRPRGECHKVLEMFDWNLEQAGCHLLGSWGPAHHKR
Sequence of Phosphatidylinositol 4-phosphate 3-kinase C2 domain-containing subunit beta (Homo sapiens) (O00750 whole entry, the tested form may be a part): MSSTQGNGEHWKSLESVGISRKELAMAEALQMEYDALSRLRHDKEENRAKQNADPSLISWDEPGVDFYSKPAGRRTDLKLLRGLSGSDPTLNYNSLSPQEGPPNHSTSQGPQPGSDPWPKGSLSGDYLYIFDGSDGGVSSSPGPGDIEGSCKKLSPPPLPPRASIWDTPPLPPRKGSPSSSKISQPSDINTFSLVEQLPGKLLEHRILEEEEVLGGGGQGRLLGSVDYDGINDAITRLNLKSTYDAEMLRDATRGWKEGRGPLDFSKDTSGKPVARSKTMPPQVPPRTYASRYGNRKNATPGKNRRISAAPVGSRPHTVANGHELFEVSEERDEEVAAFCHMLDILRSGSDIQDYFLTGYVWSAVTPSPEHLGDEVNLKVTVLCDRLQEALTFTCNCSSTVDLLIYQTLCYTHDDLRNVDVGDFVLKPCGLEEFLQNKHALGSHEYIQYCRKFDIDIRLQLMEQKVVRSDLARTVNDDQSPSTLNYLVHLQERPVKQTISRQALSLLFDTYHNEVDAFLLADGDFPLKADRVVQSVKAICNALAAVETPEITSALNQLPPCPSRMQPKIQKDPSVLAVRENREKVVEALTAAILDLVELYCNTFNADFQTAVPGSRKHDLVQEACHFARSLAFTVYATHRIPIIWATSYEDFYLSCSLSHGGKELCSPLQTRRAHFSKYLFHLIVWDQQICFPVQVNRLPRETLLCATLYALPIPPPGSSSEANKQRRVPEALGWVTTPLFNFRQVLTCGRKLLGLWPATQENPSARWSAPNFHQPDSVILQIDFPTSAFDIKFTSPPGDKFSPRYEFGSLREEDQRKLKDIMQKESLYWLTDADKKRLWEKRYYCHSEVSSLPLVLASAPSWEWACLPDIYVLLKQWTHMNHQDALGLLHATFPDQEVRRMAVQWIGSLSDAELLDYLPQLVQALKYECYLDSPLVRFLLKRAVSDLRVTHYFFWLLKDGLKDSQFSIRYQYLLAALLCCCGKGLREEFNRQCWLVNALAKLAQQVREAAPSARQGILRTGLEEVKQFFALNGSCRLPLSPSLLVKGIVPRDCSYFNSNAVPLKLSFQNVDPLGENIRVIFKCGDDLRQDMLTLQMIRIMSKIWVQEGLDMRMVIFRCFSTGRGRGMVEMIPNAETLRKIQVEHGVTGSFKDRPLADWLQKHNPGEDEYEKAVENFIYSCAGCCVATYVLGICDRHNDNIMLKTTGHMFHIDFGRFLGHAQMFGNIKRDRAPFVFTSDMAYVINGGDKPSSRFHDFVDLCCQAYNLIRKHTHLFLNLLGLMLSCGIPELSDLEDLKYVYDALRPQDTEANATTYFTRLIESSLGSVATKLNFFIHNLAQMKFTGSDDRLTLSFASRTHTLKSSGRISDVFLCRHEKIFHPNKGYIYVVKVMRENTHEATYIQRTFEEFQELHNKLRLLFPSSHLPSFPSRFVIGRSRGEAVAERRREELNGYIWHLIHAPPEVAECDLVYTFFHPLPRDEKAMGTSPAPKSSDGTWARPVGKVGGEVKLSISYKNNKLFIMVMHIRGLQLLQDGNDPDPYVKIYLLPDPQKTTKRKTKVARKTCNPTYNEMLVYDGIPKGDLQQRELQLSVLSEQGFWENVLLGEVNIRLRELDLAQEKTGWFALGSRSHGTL

Which % of control [1] does the source give for `CN(C)C/C=C/C(=O)Nc1ccc(C(=O)N2CCCC(Nc3ncc(Cl)c(-c4c[nH]c5ccccc45)n3)C2)cc1` (configuration not stated) here?
Its % of control is 81%.

`CN(C(=O)c1cnn2cccnc12)c1cc2c(cc1N1CCOCC1)C(=O)N(C[C@@H](F)C(C)(C)O)C2` was tested. Which dTM [2] did it give?
The dTM was -0.4 K.

Which % of control [3] does the source give for `CN(C)CCOc1ccc(-c2nc(-c3ccncc3)c(-c3ccc4c(c3)CC/C4=N\O)[nH]2)cc1` here?
Its % of control is 94%.

`Nc1cnc(N2CCc3cc(S(=O)(=O)Nc4c(F)cc(Cl)cc4F)cc(N4CCCC4=O)c32)nc1` [TP-020n] was tested. Which % of control [4] did it give?
Its % of control is 92%.

For `Cc1ccc(-c2ccc3c(ccc4sc5c(c43)NC[C@@H](C)NC5=O)n2)cn1`, which % of inhibition [5] is on record?
Its % of inhibition is 46%.

For `C=CC(=O)Nc1ccc(C(=O)Nc2[nH]nc3c2CN(C(=O)N[C@H](CN(C)C)c2ccccc2)C3(C)C)cc1`, which % of engagement (Activated CDC42 kinase 1) is on record?
Its % of engagement is -3.6%.

For `Cc1cc([C@@H](C)Nc2ccccc2C(=O)O)c2nc(N3CCOCC3)cc(=O)n2c1` [AZD-6482], which % of control [6] is on record?
Its % of control is 96%.

With `CC[C@@H]1[C@H](F)C(=O)N[C@@H]1COc1nccc2cc(C(N)=O)c(OC)cc12` [ZIMLOVISERTIB] as the compound, how does the % of inhibition [7] read?
Its % of inhibition is 2.36%.

With `CCc1cccc(CC)c1NC(=O)c1nn(C)c2c1CCc1cnc(Nc3ccc(C(=O)NC4CCN(C)CC4)cc3OC(F)(F)F)nc1-2` as the compound, how does the IC50 [8] read?
Its IC50 is > 10 µM.

With `COc1cc(Nc2nc(C)cc(-c3cnn4nc(OC)ccc34)n2)cc(C(F)(F)F)c1` as the compound, how does the % of control [9] read?
Its % of control is 87%.

With `CCC(=O)N1CCN(c2ccc(-n3c(=O)ccc4cnc5ccc(-c6cnc7ccccc7c6)cc5c43)cc2C(F)(F)F)CC1` as the compound, how does the % of control [10] read?
The % of control was 25%.

How did the % of control [11] turn out when `Cc1cc(F)c(C(=O)Nc2cccc(-c3nncn3C(C)C)n2)cc1-n1cnc(C2CC2)c1` was run?
Its % of control is 100%.
